Test results as given in patent US9880171B2, “iASPP phosphorylation and metastatic potential” (LUDWIG INSTITUTE FOR CANCER RESEARCH LTD., priority 2012, dated 2018).

Tests used:
Format in all cases: cell-based, human
[1] = system: slow-migrating iASPP in H1299 cells; test: induction of slow-migrating iASPP by chemotherapeutic agents in H1299 cells (WB); details: H1299, overnight treatment (oxidative stress inducers 1-3 h; EDTA 4 mM 1 hour), antibody LX49.3
Description: FIG. 3. […] H1299 cells were treated overnight with the indicated concentrations of mitosis-arrest drugs nocodazole, colchicine and taxol, DNA damaging drugs, or oxidative stress inducers (1-3 h). Total lysate was prepared in UREA buffer, and iASPP expression patterns were determined using antibody LX49.3. […] Mitotic-arrest drugs were applied to H1299 cells to induce iASPP mobility shift. Floating and adherent cells were collected, and iASPP expression pattern was determined by western blotting (WB). C. […] Left panel, cells in mitosis (floating) and interphase (adherent) were collected by mitotic shake-off, and iASPP expression pattern was determined by WB. Right panel, H1299 cells after Taxol treatment, or mitotic shake-off were immunofluorescence stained using antibody LX49.3. In mitotic shake-off experiment, mitotic shake-off cells were cytospun to slides; the remaining adherent cells after shaking were scraped off and used as interphase control. […] Melanoma cells were treated with nocodazole overnight and iASPP expression patterns from total cell lysate was determined by WB.
FIG. 4. A. Floating and adherent H1299 cells separately collected by mitotic shake-off (FIG. 3C) were stained with propidium iodide (PI), followed by FACS analysis. […] B. H1299 cells were subjected to treatment of 10 μM nocodazole for 24 hours (Nocodazole), on ice for 30 minutes (Cold shock), or 4 mM EDTA for 1 hour (EDTA). Left panel: iASPP expression pattern was analysed by immunoblotting. Right panel: phase contrast images were taken before collection of the cells for WB analysis. Bar=20 μm.
(§1) For WB, cells were lysed in buffer containing 8 M urea, 1 M thiourea, 0.5% CHAPS, 50 mM DTT, and 24 mM spermine. A total of 40 μg of protein extract was loaded per lane into SDS-polyacrylamide gels. Gels were transferred onto nitrocellulose membrane (Protran) and the resulting blots incubated first with primary antibody overnight at 4° C. and then with the appropriate secondary horseradish peroxidize-conjugated antibody (Dako). The results were visualized by enhanced chemiluminescent detection (Amersham Biosciences) using X-ray film (Fujifilm). For cell lysate immunoprecipitation, cells were dissolved in NP40 buffer (50 mM Tris-HCl pH 8.0, 150 mM NaCl, 1% NP-40) with protease inhibitor cocktail mix (Roche Diagnostics). Cells were further thoroughly broken by ultrasonication, followed by spinning for 1 hour. Achieved suspension was adjusted to 1-2 mg/ml using NP40 buffer and incubated with 20 μl nickel beads, glutathione beads, or protein A beads (with 2 μg required antibody) for 2 h at room temperature. The beads were washed for four times with NP40 buffer, boiled for 5 min in Laemmli sample buffer, and applied for Western blotting. For pure protein immunoprecipitation, 5-10 μg purified proteins were mixed in NP40 buffer with 1 mg/ml BSA for 2 h at room temperature.
As mitotic cells often detach from the tissue culture dish, floating cells were separated from adherent cells after the treatment of Nocodozole, Taxol and Colchicine.

[2] = system: slow-migrating iASPP in melanoma cell lines; test: induction of slow-migrating iASPP in melanoma cell lines (WB); details: panel of melanoma cell lines, nocodazole overnight
Description: FIG. 3. Mitotic arrests induces slow-migrating nuclear iASPP. A. Mitosis-arresting (i.e., apoptosis-inducing) chemotherapeutic drugs induce slow-migrating iASPP. H1299 cells were treated overnight with the indicated concentrations of mitosis-arrest drugs nocodazole, colchicine and taxol, DNA damaging drugs, or oxidative stress inducers (1-3 h). Total lysate was prepared in UREA buffer, and iASPP expression patterns were determined using antibody LX49.3. B. Slow-migrating iASPP exclusively exists in mitotic cells after drug induction. Mitotic-arrest drugs were applied to H1299 cells to induce iASPP mobility shift. Floating and adherent cells were collected, and iASPP expression pattern was determined by western blotting (WB). C. Slow-migrating iASPP exists in natural mitotic cells and localized in nucleus (as determining by staining with the nuclear specific marker Topro). Left panel, cells in mitosis (floating) and interphase (adherent) were collected by mitotic shake-off, and iASPP expression pattern was determined by WB. Right panel, H1299 cells after Taxol treatment, or mitotic shake-off were immunofluorescence stained using antibody LX49.3. […] Melanoma cells were treated with nocodazole overnight and iASPP expression patterns from total cell lysate was determined by WB. […]

[3] = system: iASPP modification and p53-iASPP binding in WM278 cells; test: iASPP modification and p53 co-immunoprecipitation in WM278 cells; details: 0.4 μM JNJ or 10 μM nocodazole overnight
Description: as §1

`COC(=O)Nc1nc2ccc(C(=O)c3cccs3)cc2[nH]1` [Nocodazole] was tested, and the “induction of slow-migrating iASPP isoform” value [1] was “induced”, the “induction of slow-migrating iASPP isoform” value [2] was “induced the conversion of faster migrating iASPP into the slower migrating iASPP isoform” and the “amount of modified iASPP” value [3] was “induced iASPP modification”.
